Data published in US7897765B2, “Therapeutic compounds and uses thereof” (Elixir Pharmaceuticals, Inc., priority 2003, dated 2011).

target: GHS-R (Homo sapiens, UniProt Q92847); experiment: cell based assay of GHS-R antagonist/agonist activity; set-up: key: A refers to a compound having antagonist activity with Ki<100 nM in a cell based assay; B refers to a compound having agonist activity with EC50<100 nM in a cell based assay; C refers to a compound having antagonist activity of Ki>100 nM and <1500 nM in a cell based assay; D refers to a compound having antagonist activity with Ki, <100 nM and agonist activity with EC50<100 nM in a cell-based assay; E refers to other exemplary compounds; settings: GHS-R antagonist Ki and/or agonist EC50 class
Sequence (Q92847 whole entry, species assumed): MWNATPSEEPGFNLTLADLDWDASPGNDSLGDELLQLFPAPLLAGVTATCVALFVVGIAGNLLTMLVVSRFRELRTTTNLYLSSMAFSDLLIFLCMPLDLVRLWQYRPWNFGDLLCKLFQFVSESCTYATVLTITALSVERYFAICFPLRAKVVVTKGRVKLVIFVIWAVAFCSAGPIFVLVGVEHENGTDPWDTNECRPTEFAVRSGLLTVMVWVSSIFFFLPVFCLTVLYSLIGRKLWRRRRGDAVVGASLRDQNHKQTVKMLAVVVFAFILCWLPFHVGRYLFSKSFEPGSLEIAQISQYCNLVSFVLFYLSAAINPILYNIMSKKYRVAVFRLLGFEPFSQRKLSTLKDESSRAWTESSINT
Procedure, shortened: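 COS-7 cells transfected with GHS-R, labelled with [3H]-myo-inositol, preincubated in 10 mM LiCl buffer pH 7.4, then given compound 45 min at 37 °C; [3H]-IP isolated by anion exchange. Alternatively, CREB-luciferase reporter in transfected HEK293 with 5 h compound exposure. IC50/EC50 by nonlinear regression.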

Row | Activity | SMILES
1 | E | CC(=O)N(CC1CCN(C(=O)OC(C)(C)C)CC1)[C@H](COCc1ccccc1)C(=O)N1CCC2(CC1)CN(S(C)(=O)=O)c1ccccc12 [Compound 108]
2 | E | CC(C)N1CCC(C(=O)N[C@H](COCc2ccccc2)C(=O)N2CCC3(CC2)CN(S(C)(=O)=O)c2ccccc23)CC1 [Compound 110]
3 | E | CCN(CC)CCC(=O)N[C@H](COCc1ccccc1)C(=O)N1CCC2(CC1)CN(S(C)(=O)=O)c1ccccc12 [Compound 111]
4 | E | CC1=NCCC(C(=O)N[C@H](COCc2ccccc2)C(=O)N2CCC3(CC2)CN(S(C)(=O)=O)c2ccccc23)N1 (some centres unmarked) [Compound 112]
5 | E | CN1CCC[C@H]1CC(=O)N[C@H](COCc1ccccc1)C(=O)N1CCC2(CC1)CN(S(C)(=O)=O)c1ccccc12 [Compound 113]
6 | E | CS(=O)(=O)N1CC2(CCN(C(=O)[C@@H](COCc3ccccc3)NC(=O)[C@@H]3CCC[C@H](CN)C3)CC2)c2ccccc21 [Compound 114]
7 | E | CN1CCC(C(=O)N[C@H](COCc2ccccc2)C(=O)N2CCC3(CC2)CN(S(C)(=O)=O)c2ccccc23)C1 (some centres unmarked) [Compound 115]
8 | E | CN1CCC[C@H](C(=O)N[C@H](COCc2ccccc2)C(=O)N2CCC3(CC2)CN(S(C)(=O)=O)c2ccccc23)C1 [Compound 116]
9 | E | CS(=O)(=O)N1CC2(CCN(C(=O)[C@@H](COCc3ccccc3)NC(=O)C3(N)CCCCC3)CC2)c2ccccc21 [Compound 117]
10 | E | CN(C)C1(C(=O)N[C@H](COCc2ccccc2)C(=O)N2CCC3(CC2)CN(S(C)(=O)=O)c2ccccc23)CCCCC1 [Compound 118]
11 | E | CN(C)C1(C(=O)N[C@H](COCc2ccccc2)C(=O)N2CCC3(CC2)CN(S(C)(=O)=O)c2ccccc23)CCCC1 [Compound 119]
12 | E | CS(=O)(=O)N1CC2(CCN(C(=O)[C@@H](COCc3ccccc3)NC(=O)C3(N)CC3)CC2)c2ccccc21 [Compound 120]
13 | E | CS(=O)(=O)N1CC2(CCN(C(=O)[C@@H](COCc3ccccc3)NC(=O)c3ccc(CN)cc3)CC2)c2ccccc21 [Compound 121]
14 | E | CS(=O)(=O)N1CC2(CCN(C(=O)[C@@H](COCc3ccccc3)NC(=O)c3cccc(CN)c3)CC2)c2ccccc21 [Compound 122]
15 | E | CN(C)CC(=O)N[C@H](Cc1ccccc1)C(=O)N1CCC2(CC1)CN(S(C)(=O)=O)c1ccccc12 [Compound 123]
16 | E | CN(C)CC(=O)N[C@@H](Cc1ccccc1)C(=O)N1CCC2(CC1)CN(S(C)(=O)=O)c1ccccc12 [Compound 124]

Row | Activity | SMILES
17 | E | CN1CCC(C(=O)N[C@H](Cc2c[nH]c3ccccc23)C(=O)N2CCC3(CC2)CN(S(C)(=O)=O)c2ccccc23)CC1 [Compound 135]
18 | E | CN1CCC(C(=O)N[C@H](CCc2ccccc2)C(=O)N2CCC3(CC2)CN(S(C)(=O)=O)c2ccccc23)CC1 [Compound 136]
19 | E | C[C@@H](OCc1ccccc1)C(NC(=O)C1CCN(C)CC1)C(=O)N1CCC2(CC1)CN(S(C)(=O)=O)c1ccccc12 (some centres unmarked) [Compound 137]
20 | E | CN1CCC(C(=O)NC(Cc2ccc3ccccc3c2)C(=O)N2CCC3(CC2)CN(S(C)(=O)=O)c2ccccc23)CC1 (centres unmarked) [Compound 138]
21 | E | CN1CCC(NC(=O)N2C[C@H](OCc3ccccc3)CC2C(=O)N2CCC3(CC2)CN(S(C)(=O)=O)c2ccccc23)CC1 (some centres unmarked) [Compound 139]
22 | E | Cc1ccc(CSC[C@H](NC(=O)C2CCN(C)CC2)C(=O)N2CCC3(CC2)CN(S(C)(=O)=O)c2ccccc23)cc1 [Compound 140]
23 | E | CN1CCC(C(=O)N[C@H](CC(=O)N2CCC3(CC2)CN(S(C)(=O)=O)c2ccccc23)Cc2c[nH]c3ccccc23)CC1 [Compound 141]
24 | E | CC(OCc1ccccc1)[C@@H](CC(=O)N1CCC2(CC1)CN(S(C)(=O)=O)c1ccccc12)NC(=O)C1CCN(C)CC1 (some centres unmarked) [Compound 142]
25 | E | CS(=O)(=O)N1CC2(CCN(C(=O)[C@@H](COCc3ccccc3)NS(=O)(=O)CCN3CCOCC3)CC2)c2ccccc21 [Compound 144]
26 | E | CC(C)(C)NCCS(=O)(=O)N[C@H](COCc1ccccc1)C(=O)N1CCC2(CC1)CN(S(C)(=O)=O)c1ccccc12 [Compound 145]
27 | E | C=CS(=O)(=O)N[C@H](COCc1ccccc1)C(=O)N1CCC2(CC1)CN(S(C)(=O)=O)c1ccccc12 [Compound 147]
28 | E | CS(=O)(=O)N1CC2(CCN(C(=O)[C@@H](COCc3ccccc3)NS(=O)(=O)CCCN3CCOCC3)CC2)c2ccccc21 [Compound 149]
29 | E | CN(C)CCCS(=O)(=O)N[C@H](COCc1ccccc1)C(=O)N1CCC2(CC1)CN(S(C)(=O)=O)c1ccccc12 [Compound 156]
30 | E | CS(=O)(=O)N1CC2(CCN(C(=O)[C@@H](COCc3ccccc3)NS(=O)(=O)CCCNC3CC3)CC2)c2ccccc21 [Compound 157]
31 | E | CS(=O)(=O)N1CC2(CCN(C(=O)[C@@H](COCc3ccccc3)N3CCCS3(=O)=O)CC2)c2ccccc21 [Compound 158]

Row | SMILES | Activity
32 | CC(C)(N)C(=O)N[C@H](COCc1ccccc1)C(=O)N1CCC2(CC1)CN(S(C)(=O)=O)c1ccccc12.CS(=O)(=O)O [Compound 125] | B (B refers to a compound having agonist activity with EC50<100 nM in a cell based assay)
33 | CC(=O)NC(C)(C)C(=O)N[C@H](COCc1ccccc1)C(=O)N1CCC2(CC1)CN(S(C)(=O)=O)c1ccccc12 [Compound 126] | B (B refers to a compound having agonist activity with EC50<100 nM in a cell based assay)
34 | CN(C)CC(=O)NC(C)(C)C(=O)N[C@H](COCc1ccccc1)C(=O)N1CCC2(CC1)CN(S(C)(=O)=O)c1ccccc12 [Compound 127] | B (B refers to a compound having agonist activity with EC50<100 nM in a cell based assay)
35 | CS(=O)(=O)N1CC2(CCN(C(=O)[C@@H](COCc3ccccc3)NC(=O)C3CCNCC3)CC2)c2ccccc21 [Compound 128] | B (B refers to a compound having agonist activity with EC50<100 nM in a cell based assay)
36 | CN[C@@H](C)C(=O)N[C@H](COCc1ccccc1)C(=O)N1CCC2(CC1)CN(S(C)(=O)=O)c1ccccc12 [Compound 129] | B (B refers to a compound having agonist activity with EC50<100 nM in a cell based assay)
37 | CN[C@H](C)C(=O)N[C@H](COCc1ccccc1)C(=O)N1CCC2(CC1)CN(S(C)(=O)=O)c1ccccc12 [Compound 130] | B (B refers to a compound having agonist activity with EC50<100 nM in a cell based assay)
38 | CN(C)C(C)(C)C(=O)N[C@H](COCc1ccccc1)C(=O)N1CCC2(CC1)CN(S(C)(=O)=O)c1ccccc12 [Compound 131] | B (B refers to a compound having agonist activity with EC50<100 nM in a cell based assay)
39 | CNC(C)(C)C(=O)N[C@H](COCc1ccccc1)C(=O)N1CCC2(CC1)CN(S(C)(=O)=O)c1ccccc12 [Compound 132] | B (B refers to a compound having agonist activity with EC50<100 nM in a cell based assay)
40 | CN1CCCC[C@@H]1C(=O)N[C@H](COCc1ccccc1)C(=O)N1CCC2(CC1)CN(S(C)(=O)=O)c1ccccc12.Cl [Compound 133] | B (B refers to a compound having agonist activity with EC50<100 nM in a cell based assay)
41 | CS(=O)(=O)N1CC2(CCN(C(=O)[C@@H](COCc3ccccc3)NC(=O)C3(N)CCCC3)CC2)c2ccccc21 [Compound 134] | B (B refers to a compound having agonist activity with EC50<100 nM in a cell based assay)
42 | CN1CCC(S(=O)(=O)N[C@H](COCc2ccccc2)C(=O)N2CCC3(CC2)CN(S(C)(=O)=O)c2ccccc23)CC1 [Compound 143] | A (A refers to a compound having antagonist activity with Ki<100 nM in a cell based assay)
43 | CC(C)NCCS(=O)(=O)N[C@H](COCc1ccccc1)C(=O)N1CCC2(CC1)CN(S(C)(=O)=O)c1ccccc12 [Compound 146] | C (C refers to a compound having antagonist activity of Ki>100 nM and <1500 nM in a cell based assay)
44 | CC(C)NCCCS(=O)(=O)N[C@H](COCc1ccccc1)C(=O)N1CCC2(CC1)CN(S(C)(=O)=O)c1ccccc12 [Compound 148] | A (A refers to a compound having antagonist activity with Ki<100 nM in a cell based assay)
45 | CC(C)(C)NCCCS(=O)(=O)N[C@H](COCc1ccccc1)C(=O)N1CCC2(CC1)CN(S(C)(=O)=O)c1ccccc12 [Compound 150] | A (A refers to a compound having antagonist activity with Ki<100 nM in a cell based assay)
46 | CS(=O)(=O)N1CC2(CCN(C(=O)[C@@H](COCc3ccccc3)NS(=O)(=O)CCN3C4CCCC3CC4)CC2)c2ccccc21 [Compound 151] | C (C refers to a compound having antagonist activity of Ki>100 nM and <1500 nM in a cell based assay)
47 | CN1C2CCC1CC(S(=O)(=O)N[C@H](COCc1ccccc1)C(=O)N1CCC3(CC1)CN(S(C)(=O)=O)c1ccccc13)C2 (some centres unmarked) [Compound 152] | C (C refers to a compound having antagonist activity of Ki>100 nM and <1500 nM in a cell based assay)
48 | CS(=O)(=O)N1CC2(CCN(C(=O)[C@@H](COCc3ccccc3)NS(=O)(=O)CCCCl)CC2)c2ccccc21 [Compound 153] | A (A refers to a compound having antagonist activity with Ki<100 nM in a cell based assay)
49 | CN1CCC(S(=O)(=O)N[C@H](COCc2ccccc2)C(=O)N2CCC3(C=Cc4ccccc43)CC2)CC1 [Compound 154] | C (C refers to a compound having antagonist activity of Ki>100 nM and <1500 nM in a cell based assay)
50 | CCN(CC)CCCS(=O)(=O)N[C@H](COCc1ccccc1)C(=O)N1CCC2(CC1)CN(S(C)(=O)=O)c1ccccc12 [Compound 155] | A (A refers to a compound having antagonist activity with Ki<100 nM in a cell based assay)
